Experimental findings from patent publication US20160199469A1, “ONCOLOGY VACCINE” (priority 2013, published 2016) are described below.

What all share (format): cell-based, human
The subject of test [1] is PBMC from individuals with non-small cell lung cancer (NSCLC). The test is described as follows: IFNγ ELISpot after 7 day short-term culture, NSCLC patients (Example 3). Particulars: for responder frequency: NSCLC patients, percentage of patients with peptide responses of greater than 500 SFC/million, peptide pools 5 μg/peptide/mL; for IFN-γ ELISpot spot intensity in NSCLC patients compared with healthy subjects: FIG. 7, Mann-Whitney unpaired test.

In test [2] the test system is PBMC from healthy subjects. The test is described as follows: Peptide-specific T cell responses by IFN-γ ELISpot after short term culture, healthy subjects (Example 2). Particulars: positive response = SFC/10^6 PBMC greater than 20, pools of overlapping 18-mer peptides at 5 μg/peptide/mL.
Method: Peptide-specific T cell responses were evaluated in peripheral mononuclear cells obtained from healthy subjects. After thawing, PBMC were cultured in 24-well flat bottom plates (or 48-well bottom plates) at a density of 1 million cells per ml in the presence of culture medium (RPMI 1640 Medium, Glutamax™ (Life Technologies) with 5% (v/v) human AB Serum (PAA Laboratories Ltd)) and a pool of peptides (composed of P103-P53, P513_MAGE3, P679_MAGE3, P805_NY_ESO1, P1575_HER, P2238-HER, P3825_MUC1, P3776_MUC1, P4540_hTERT, P4575_hTERT, P5400_MAGE1, P-HAGE) at a total final concentration of 20 μg/mL.
The plates were incubated at 37° C. in a 5% CO2 incubator and on Day 4, recombinant human IL-2 and IL-15 (R&D Systems) were added to each well at final concentrations of 10 IU/ml and 10 ng/mL respectively. On Day 7, PBMC cultures were removed and washed in culture medium and replaced back into wells in culture medium containing 10 IU/mL of IL-2. After overnight resting at 37° C. in a 5% CO2 incubator, cells were removed, counted and assessed for viability. PVDF plates (MSIPS4510, Millipore) were coated with anti-human IFN-γ antibody (R&D systems) and incubated overnight at 4° C. Plates were then washed and incubated with blocking buffer (1% BSA (PAA), 5% sucrose (Fisher), Dulbecco's-PBS (Invitrogen)) for at least 1 hour and finally washed with culture medium before use. […] After 18 hours of culture, plates were washed and incubated with a biotinylated secondary anti-human IFN-γ antibody (R&D systems) followed by streptavidin-AP. Production of IFN-γ was detected using the ELISpot blue colour module (R&D Systems) as per manufacturer's instructions. Plates were scanned and wells were counted using an automated ELISpot plate reading system equipped with spot counting software (Cellular Technology Limited). Results are expressed as Spot Forming Cells (SFC)/10^6 PBMC and background responses represented by IFNγ SFC of PBMC in culture medium alone have been subtracted for each subject. Positive response was defined as number of Spot Forming Cells (SFC)/10^6 PBMC greater than 20.
For test [3], the system named is PBMC from NSCLC subjects. The test is described as follows: Intracellular cytokine staining (ICS) of CD4+ and CD8+ T cells after short-term culture. The conditions noted are these: for Th1 cytokine-producing CD4 and/or CD8 T cell responses: intracellular cytokine staining, FIGS. 8, 9 and 10; for level of response among the peptides in the mixture: short term culture with a combination of peptide pools. Here is the method: PBMC were cultured in 2 mL culture medium (CM, RPMI1640 Glutamax supplemented with 5% untreated human AB serum (PAA) and gentamicin) in 24 well cell culture plates at a concentration of 1×10^6 cells/mL for a total of 7 days. Each pool was added at 20 μg/mL total peptide final concentration. On day 1, IL-7 (Peprotech) and IL-2 (R&D Systems) were added to the cultures to a final concentration of 5 ng/mL and 10 IU/mL respectively. On day 3, IL-2 was added at a concentration of 10 IU/mL. On day 7, cells were harvested from cell culture plates washed with culture medium and counted using TruCount (BD Biosciences) before analysis using IFNγ (interferon gamma) ELISpot assay or intracellular cytokine staining (ICS) as described below.
Short term culture of PBMC were prepared as described above, except culture conditions 1 and 2 were replaced with alternative culture conditions 1 to 5 below, each of which involves stimulation with a different combination of peptide pools:
Culture 5: P-P805_NY_ESO1
Cells from the short-term cultures were plated in a 96 well round bottom plate at 5×10^5 PBMC/well stimulated with individual peptide pools used at a concentration of 5 μg/peptide/mL. Plates were incubated at 37° C. in a 5% CO2 incubator for 20h. PMA/Ionomycin was added to respective wells and Golgi plug (BD Biosciences) was added to all wells after the first 3h of the assay. The cells were harvested and washed with PBS+0.1% BSA (wash buffer) and stained with anti-CD3, anti-CD4 and anti-CD8 (BD Biosciences) for 30 minutes at 4° C. After another wash, the cells were fixed and permeabilised with 100 μL of Cytofix/Cytoperm solution (BD Biosciences) for 20 minutes at 4° C., followed by two washes with 1× Perm/Wash solution (BD Biosciences). Finally, cells were stained with ant-IL-2-FITC, anti-IFNγ-PE and anti-TNFα PerCP-Cy5.5 (BD Biosciences) for 30 minutes at 4° C. Samples were acquired on a FACSCanto II flow cytometer (BD Biosciences). Gating was based on isotype control antibody staining and media stimulated samples for each subject.

In test [4] the test system is PBMC from healthy individuals. Nature of the test: IFNγ ELISpot after 7 day short-term culture, healthy individuals (Example 3). Particulars: healthy subjects (FIGS. 3 and 5).

In the case of “AFLSVKKQFEELTLGEFLKLDRERAKNKIAKETNNKKKE (listed as Homo sapiens) [P991_SURVIVIN]”, the responder frequency in test [1] is given as 14.51%.

Turning to “AGIRRDGLLLRLVDDFLLVTPHLTHAKTFLRTLVRGVPEYG (listed as Homo sapiens) [P4862_TERT]”, the responder frequency in test [1] (listed as P4862_hTERT) is recorded as 7.93%.

On to “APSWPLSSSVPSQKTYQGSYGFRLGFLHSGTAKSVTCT (listed as Homo sapiens) [P103-P53]”, for which, in test [2], the “frequency of responding subjects” value is 100%. Moreover, in test [1], the “IFN-γ ELISpot spot intensity in NSCLC patients compared with healthy subjects” value is recorded as “significantly lower”. The “Th1 cytokine-producing CD4 and/or CD8 T cell responses” value in test [3] is on record as “ability to promote Th1 cytokine-producing CD4 and/or CD8 T cell responses”.

Turning to “EFQAALSRKVAELVHFLLLKYRAREPVTKAEMLG (listed as Homo sapiens) [P513_MAGE3]”, in test [2], the “frequency of responding subjects” value stood at 50%. In test [1], this sequence showed a responder frequency of 18.46%.

As to “EMFLQIYKQGGFLGLSNIKFRPGSVVVQLTLAFREGTINVH (listed as Homo sapiens) [P3825_MUC1]”, the “frequency of responding subjects” value in test [2] was 17%. Also, the responder frequency in test [1] is listed as 8.06%.

As for “GAQYRIHTHGVFRGIQDVRRVPGVAPTLVRSASETSEKRPF (listed as Homo sapiens) [P1331_WT1]”, the responder frequency in test [1] was 5.08%.

As for “GENVKIPVAIKVLRENTSPKANKEILDEAYVMAGVGSPYVSRKK (listed as Homo sapiens) [P2238-HER]”, the “frequency of responding subjects” value in test [2] is 83%. The responder frequency in test [1] turned out to be 10.00%.

In test [1], “HREARPALLTSRLRFIPKPDGLRPIVNMDYVVGARTFRREK [P4616_hTERT]” came in with a responder frequency of 37.50%. Also, in test [3], the “Th1 cytokine-producing CD4 and/or CD8 T cell responses” value is “ability to promote Th1 cytokine-producing CD4 and/or CD8 T cell responses”.

As for “HRLREEILAKFLHWLMSVYVVELLRSFFYVTETTFQKNR (listed as Homo sapiens) [P4540_hTERT]”, the “frequency of responding subjects” value in test [2] was determined as 67%. Besides, in test [1], the “IFN-γ ELISpot spot intensity in NSCLC patients compared with healthy subjects” value is listed as “significantly lower” and the responder frequency came out at 23.43%. Moreover, the “Th1 cytokine-producing CD4 and/or CD8 T cell responses” value in test [3] is given as “ability to promote Th1 cytokine-producing CD4 and/or CD8 T cell responses”.

On to “ILESLFRAVITKKVADLVGFLLLKYRAREPVTKAEMLESVIK (listed as Homo sapiens) [P5232_MAGE1]”, for which, in test [1], the “IFN-γ ELISpot spot intensity in NSCLC patients compared with healthy subjects” value is “significantly lower” and the responder frequency worked out at 32.25%. Further, the “Th1 cytokine-producing CD4 and/or CD8 T cell responses” value in test [3] is on record as “ability to promote Th1 cytokine-producing CD4 and/or CD8 T cell responses”.

In test [1], “LGLSYDGLLGDNQIMPKAGLLIIVLAIIAREGD (listed as Homo sapiens) [P590-MAGE3]” yielded a responder frequency of 15.87%.

Regarding “MTPGTQSPFFLLLLLTVLTVVTGSGHASSTPGG (listed as Homo sapiens) [P2753_MUC1]”, the responder frequency in test [1] is reported as 4.76%.

Turning to “PALGSTAPPVHNVTSASGSASGSASTLVHNGTSARATTTPASK (listed as Homo sapiens) [P3698_MUC1]”, the responder frequency in test [1] is listed as 14.06%.

On to “PARYEFLWGPRALAETSYVKVLEYVIKVSARVRFFFPSLREA (listed as Homo sapiens) [P5400_MAGE1]”, for which the “frequency of responding subjects” value in test [2] is on record as 100%. Moreover, in test [1], the “IFN-γ ELISpot spot intensity in NSCLC patients compared with healthy subjects” value is listed as “significantly lower” and the responder frequency was 27.41%. Moreover, in test [3], the “Th1 cytokine-producing CD4 and/or CD8 T cell responses” value is “ability to promote Th1 cytokine-producing CD4 and/or CD8 T cell responses” and the “level of response among the peptides in the mixture” value (from here on “level”) is listed as “highest level of response”.

With “PDGPGGNAGGPGEAGATGGRGPRGAGAARASGPGGGAP (listed as Homo sapiens) [P750-NYESO, used as a negative control peptide]”, the “magnitude of response and responder frequency” value in test [1] (NSCLC patients (FIGS. 2 and 4)) is “amongst the lowest responding peptides”; in test [4] it was “amongst the lowest responding peptides”. The sequence also returned a responder frequency in test [1] of 3.12%.

Take “QTGTGKTLCYLMPGFIHLVLQPSLKGQRNRPGMLV (listed as Homo sapiens) [P-HAGE]”: the “frequency of responding subjects” value in test [2] is recorded as 50%. For the same sequence, the “IFN-γ ELISpot spot intensity in NSCLC patients compared with healthy subjects” value in test [1] is listed as “significantly lower”. The “Th1 cytokine-producing CD4 and/or CD8 T cell responses” value in test [3] is “ability to promote Th1 cytokine-producing CD4 and/or CD8 T cell responses”.

As for “RAVRSLLRSHYREVLPLATFVRRLGPQGWRLVQRGDPAAFRA (listed as Homo sapiens) [P4020_hTERT]”, in test [1], the “IFN-γ ELISpot spot intensity in NSCLC patients compared with healthy subjects” value was “significantly lower” and the responder frequency is given as 32.81%. The “Th1 cytokine-producing CD4 and/or CD8 T cell responses” value in test [3] is on record as “ability to promote Th1 cytokine-producing CD4 and/or CD8 T cell responses”.

Regarding “RGPESRLLEFYLAMPFATPMEAELARRSLAQDAPPLPVPG (listed as Homo sapiens) [P805_NY_ESO1]”, the “frequency of responding subjects” value in test [2] is 50%. Moreover, in test [1], the “IFN-γ ELISpot spot intensity in NSCLC patients compared with healthy subjects” value is on record as “significantly lower” and the responder frequency came to 34.92%. In addition, in test [3], the “Th1 cytokine-producing CD4 and/or CD8 T cell responses” value was “ability to promote Th1 cytokine-producing CD4 and/or CD8 T cell responses” and the “level” value is “highest level of response”.

Take “RLLQLHITMPFSSPMEAELVRRILSRDAAPLPRPGAVL (listed as Homo sapiens) [P5525_LAGE1]”: in test [1], the “IFN-γ ELISpot spot intensity in NSCLC patients compared with healthy subjects” value is listed as “significantly lower” and the responder frequency is 31.03%. For the same sequence, the “Th1 cytokine-producing CD4 and/or CD8 T cell responses” value in test [3] is reported as “ability to promote Th1 cytokine-producing CD4 and/or CD8 T cell responses”.

As to “RTFRREKRAERLTSRVKALFSVLNYERARRPGLLGASVLGLDDI (listed as Homo sapiens) [P4650_hTERT]”, in test [1], the “IFN-γ ELISpot spot intensity in NSCLC patients compared with healthy subjects” value is on record as “significantly lower” and the responder frequency was determined as 38.70%. The “Th1 cytokine-producing CD4 and/or CD8 T cell responses” value in test [3] is “ability to promote Th1 cytokine-producing CD4 and/or CD8 T cell responses”.

Turning to “SVVGNWQYFFPVIFSKASSSLQLVEGIELMEVDPIGHLYIF (SVVGNWQYFFPVIFSKASSSLQLVFGIELMEVDPIGHLYIF; listed as Homo sapiens) [P550_MAGE3]”, the “IFN-γ ELISpot spot intensity in NSCLC patients compared with healthy subjects” value in test [1] is reported as “significantly lower”. For the same sequence, in test [3], the “Th1 cytokine-producing CD4 and/or CD8 T cell responses” value is “ability to promote Th1 cytokine-producing CD4 and/or CD8 T cell responses” and the “level” value is “highest level of response”.

For the sequence “TFQKNRLFFYRKSVWSKLQSIGIRQHLKRVQLRELSEAEVR (listed as Homo sapiens) [P4575_hTERT]”, the “frequency of responding subjects” value in test [2] was found to be 100%. In test [3], the “Th1 cytokine-producing CD4 and/or CD8 T cell responses” value was “ability to promote Th1 cytokine-producing CD4 and/or CD8 T cell responses”.

On to “TSSNHSTSPQLSTGVSFFFLSFHISNLQFNSSLEDPST (listed as Homo sapiens) [P3776_MUC1]”, for which, in test [2], the “frequency of responding subjects” value is 100%. The sequence further came in with a responder frequency in test [1] of 4.76%.

Regarding “VQGYVLIAHNQVRQVPLQRLRIVRGTQLFEDNYALAVL (listed as Homo sapiens) [P1575_HER]”, the “frequency of responding subjects” value in test [2] is listed as 100%. The responder frequency in test [1] is listed as 16.12%.

As for “YEFLWGPRALVETSYVKVLHHMVKISGGPHISYPPLH (listed as Homo sapiens) [P679_MAGE3]”, the “frequency of responding subjects” value in test [2] amounted to 80%. In test [1], the “IFN-γ ELISpot spot intensity in NSCLC patients compared with healthy subjects” value is “significantly lower” and the responder frequency is on record as 28.57%. Besides, the “Th1 cytokine-producing CD4 and/or CD8 T cell responses” value in test [3] is given as “ability to promote Th1 cytokine-producing CD4 and/or CD8 T cell responses”.
